In ChEMBL document CHEMBL1141922, “Benzimidazoles as non-peptide luteinizing hormone-releasing hormone (LHRH) antagonists. Part 3: Discovery of 1-(1H-benzimidazol-5-yl)-3-tert-butylurea derivatives” (Bioorg Med Chem Lett, 2005):

How the values were obtained:
[1] = target: T1, Gonadotropin-releasing hormone receptor (Homo sapiens, UniProt P30968); test: Inhibitory concentration against human leutinizing releasing hormone receptor
T1 sequence (P30968 whole entry): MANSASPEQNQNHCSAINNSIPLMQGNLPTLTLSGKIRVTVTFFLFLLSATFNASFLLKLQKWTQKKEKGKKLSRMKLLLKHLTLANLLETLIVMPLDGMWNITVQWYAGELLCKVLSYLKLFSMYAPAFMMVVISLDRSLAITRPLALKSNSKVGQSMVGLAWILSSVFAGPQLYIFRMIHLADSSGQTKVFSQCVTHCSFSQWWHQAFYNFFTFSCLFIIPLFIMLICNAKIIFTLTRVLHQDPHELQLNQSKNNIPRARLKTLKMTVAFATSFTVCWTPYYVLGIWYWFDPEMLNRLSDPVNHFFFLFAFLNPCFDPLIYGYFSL

[2] = target: T2, Gonadotropin-releasing hormone receptor (Rattus norvegicus, UniProt P30969); test: Inhibitory concentration against rat leutinizing releasing hormone receptor
T2 sequence (P30969 whole entry): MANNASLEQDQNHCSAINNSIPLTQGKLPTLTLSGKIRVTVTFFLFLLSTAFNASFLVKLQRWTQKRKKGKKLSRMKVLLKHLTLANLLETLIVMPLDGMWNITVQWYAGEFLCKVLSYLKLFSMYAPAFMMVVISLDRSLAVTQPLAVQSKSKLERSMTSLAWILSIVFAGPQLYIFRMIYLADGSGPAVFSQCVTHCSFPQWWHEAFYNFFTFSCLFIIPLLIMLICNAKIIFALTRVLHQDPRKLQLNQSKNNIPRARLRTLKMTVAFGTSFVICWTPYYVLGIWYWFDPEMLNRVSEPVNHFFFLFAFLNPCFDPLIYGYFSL

Compound	IC50 [1] [nM]	IC50 [2] [nM]
Cc1ccccc1CSc1nc2cc(NC(=O)C3CC3)ccc2n1C(C)C	3200	> 10000
CC(C)n1c(SCc2ccccc2Cl)nc2cc(NC(=O)C3CC3)ccc21	6300	> 10000
COc1ccc(Cl)cc1CSc1nc2cc(NC(=O)C3CC3)ccc2n1C(C)C	160	> 10000
COCCn1c(SCc2cc([N+](=O)[O-])ccc2OC)nc2cc(NC(=O)NC(C)(C)C)ccc21	57	280
COc1ccc([N+](=O)[O-])cc1CSc1nc2cc(NC(=O)NC(C)(C)C)ccc2n1Cc1ccccc1	28	160
COc1ccc([N+](=O)[O-])cc1CSc1nc2cc(NC(=O)NC(C)(C)C)ccc2n1C1CC1	79	860
CCCn1c(SCc2cc([N+](=O)[O-])ccc2OC)nc2cc(NC(=O)NC(C)(C)C)cc(C(=O)NCCc3ccccn3)c21	27	56
CCCCCn1c(SCc2cc([N+](=O)[O-])ccc2OC)nc2cc(NC(=O)NC(C)(C)C)ccc21	210	880
COc1ccc([N+](=O)[O-])cc1CSc1nc2cc(NC(=O)NC3CC3)ccc2n1C(C)C	1900	1600
COc1ccc([N+](=O)[O-])cc1CSc1nc2cc(NC(=O)NC(C)(C)C)ccc2n1CCc1ccccc1	360	300
COc1ccc([N+](=O)[O-])cc1CSc1nc2cc(NC(=O)C(C)C)ccc2n1C(C)C	250	1500
CCCn1c(SCc2cc([N+](=O)[O-])ccc2OC)nc2cc(NC(=O)NC(C)(C)C)cc(C(=O)NCCN)c21	210	55
CCCn1c(SCc2cc([N+](=O)[O-])ccc2OC)nc2cc(NC(=O)NC(C)(C)C)cc(C(=O)NCCc3ccncc3)c21	130	45
COc1ccc([N+](=O)[O-])cc1CSc1nc2cc(NC(=O)C3CC3)ccc2n1C(C)C	280	> 8200
COc1ccc([N+](=O)[O-])cc1CSc1nc2cc(NC(=O)C(C)(C)C)ccc2n1C(C)C	180	> 10000
COc1ccccc1CSc1nc2cc(NC(=O)C3CC3)ccc2n1C(C)C	2100	> 10000
CCCn1c(SCc2cc([N+](=O)[O-])ccc2OC)nc2cc(NC(=O)NC(C)(C)C)cc(C(=O)NCCCN(C)C)c21	170	19
CCCn1c(SCc2cc([N+](=O)[O-])ccc2OC)nc2cc(NC(=O)NC(C)(C)C)cc(C(=O)NC(C)(C)C)c21	410	490
CNC(=O)Nc1ccc2c(c1)nc(SCc1cc([N+](=O)[O-])ccc1OC)n2C(C)C	3300	> 10000
COc1ccc([N+](=O)[O-])cc1CSc1nc2cc(NC(=O)OC(C)(C)C)ccc2n1C(C)C	880	710
CCCn1c(SCc2cc([N+](=O)[O-])ccc2OC)nc2cc(NC(=O)NC(C)(C)C)cc(C(=O)NC)c21	41	23
COc1ccc(C(C)=O)cc1CSc1nc2cc(NC(=O)C3CC3)ccc2n1C(C)C	260	> 10000
COc1ccc([N+](=O)[O-])cc1CSc1nc2cc(NC(=O)CC(C)(C)C)ccc2n1C(C)C	180	110

Compound	IC50 [1] [nM]	IC50 [2] [nM]
COc1ccc([N+](=O)[O-])cc1CSc1nc2cc(NC(=O)NC(C)(C)C)ccc2n1Cc1ccncc1	47	240
COc1ccc([N+](=O)[O-])cc1CSc1nc2cc(NC(=O)NC(C)C)ccc2n1C(C)C	600	280
COc1ccc(C#N)cc1CSc1nc2cc(NC(=O)C3CC3)ccc2n1C(C)C	570	> 10000
COc1ccc([N+](=O)[O-])cc1CSc1nc2cc(NC(=O)C3CCC3)ccc2n1C(C)C	1500	630
CCCn1c(SCc2cc([N+](=O)[O-])ccc2OC)nc2cc(NC(=O)NC(C)(C)C)cc(C(=O)OC)c21	37	280
CCCn1c(SCc2cc([N+](=O)[O-])ccc2OC)nc2cc(NC(=O)NC(C)(C)C)ccc21	18	120
CCCn1c(SCc2cc([N+](=O)[O-])ccc2OC)nc2cc(NC(=O)NC(C)(C)C)cc(C(=O)NCCc3cccnc3)c21	160	110
COc1ccc([N+](=O)[O-])cc1CSc1nc2cc(NC(=O)NC(C)(C)C)ccc2n1Cc1ccccn1	43	670
CCCn1c(SCc2cc([N+](=O)[O-])ccc2OC)nc2cc(NC(=O)NC(C)(C)C)cc(C(=O)N3CCCC3)c21	610	140
COC(=O)c1ccc(OC)c(CSc2nc3cc(NC(=O)C4CC4)ccc3n2C(C)C)c1	980	> 10000
CCCn1c(SCc2cc([N+](=O)[O-])ccc2OC)nc2cc(NC(=O)NC(C)(C)C)cc(C(=O)NCc3ccncc3)c21	61	35
CCn1c(SCc2cc([N+](=O)[O-])ccc2OC)nc2cc(NC(=O)NC(C)(C)C)ccc21	42	170
COc1ccc([N+](=O)[O-])cc1CSc1nc2cc(NC(=O)NC(C)(C)C)ccc2n1C(C)C	62	62
CCCCn1c(SCc2cc([N+](=O)[O-])ccc2OC)nc2cc(NC(=O)NC(C)(C)C)ccc21	23	330
CCCn1c(SCc2cc([N+](=O)[O-])ccc2OC)nc2cc(NC(=O)NC(C)(C)C)cc(C(=O)N(C)C)c21	270	200
CCCn1c(SCc2cc([N+](=O)[O-])ccc2OC)nc2cc(NC(=O)NC(C)(C)C)cc(C(=O)NCc3ccccn3)c21	31	51
COc1ccc([N+](=O)[O-])cc1CSc1nc2cc(NC(=O)NC(C)(C)C)ccc2n1Cc1cccnc1	33	150
CCCn1c(SCc2cc([N+](=O)[O-])ccc2OC)nc2cc(NC(=O)NC(C)(C)C)cc(C(=O)O)c21	21	510
CCCn1c(SCc2cc([N+](=O)[O-])ccc2OC)nc2cc(NC(=O)NC(C)(C)C)cc(C(=O)NCc3cccnc3)c21	69	54
Cc1cccc(CSc2nc3cc(NC(=O)C4CC4)ccc3n2C(C)C)c1	6500	> 10000
CCCn1c(SCc2cc([N+](=O)[O-])ccc2OC)nc2cc(NC(=O)NC(C)(C)C)cc(C(=O)NCc3ccccc3)c21	120	130
CCCn1c(SCc2cc([N+](=O)[O-])ccc2OC)nc2cc(NC(=O)NC(C)(C)C)cc(C(=O)NCCCN(C)Cc3ccccc3)c21	190	21
COc1ccc([N+](=O)[O-])cc1CSc1nc2cc(NC(=O)NC(C)(C)C)ccc2n1-c1ccccc1	350	> 2600
